Laboratory results published in paper PMC3729039 (Molecular cancer therapeutics, 2013).

Assays:
[1] = tested on: LNCaP human prostate cancer cells; assay: Androgen-dependent proliferation of LNCaP cells; format: cell-based; settings: 0.1 nM R1881
[2] = molecular target: recombinant human full-length ERα (Homo sapiens, UniProt P03372); assay: In vitro ligand competitor assay; format: binding; settings: fluorescence polarization competitor assay
[3] = tested on: PC3 human prostate cancer cells; assay: Proliferation of PC3 cells; format: cell-based; settings: PC3, 0.1 nM R1881
[4] = tested on: LNCaP95 cells; assay: LNCaP95 cell growth/viability
[5] = molecular target: T1, full-length human progesterone receptor-beta (PRβ) (Homo sapiens, UniProt P06401); assay: PR transcriptional activity, PRE luciferase reporter in LNCaP cells; format: cell-based; settings: 10 µM, 10 nM 4-pregnene-3,20 dione, 48 hours
T1 sequence (P06401 1-933): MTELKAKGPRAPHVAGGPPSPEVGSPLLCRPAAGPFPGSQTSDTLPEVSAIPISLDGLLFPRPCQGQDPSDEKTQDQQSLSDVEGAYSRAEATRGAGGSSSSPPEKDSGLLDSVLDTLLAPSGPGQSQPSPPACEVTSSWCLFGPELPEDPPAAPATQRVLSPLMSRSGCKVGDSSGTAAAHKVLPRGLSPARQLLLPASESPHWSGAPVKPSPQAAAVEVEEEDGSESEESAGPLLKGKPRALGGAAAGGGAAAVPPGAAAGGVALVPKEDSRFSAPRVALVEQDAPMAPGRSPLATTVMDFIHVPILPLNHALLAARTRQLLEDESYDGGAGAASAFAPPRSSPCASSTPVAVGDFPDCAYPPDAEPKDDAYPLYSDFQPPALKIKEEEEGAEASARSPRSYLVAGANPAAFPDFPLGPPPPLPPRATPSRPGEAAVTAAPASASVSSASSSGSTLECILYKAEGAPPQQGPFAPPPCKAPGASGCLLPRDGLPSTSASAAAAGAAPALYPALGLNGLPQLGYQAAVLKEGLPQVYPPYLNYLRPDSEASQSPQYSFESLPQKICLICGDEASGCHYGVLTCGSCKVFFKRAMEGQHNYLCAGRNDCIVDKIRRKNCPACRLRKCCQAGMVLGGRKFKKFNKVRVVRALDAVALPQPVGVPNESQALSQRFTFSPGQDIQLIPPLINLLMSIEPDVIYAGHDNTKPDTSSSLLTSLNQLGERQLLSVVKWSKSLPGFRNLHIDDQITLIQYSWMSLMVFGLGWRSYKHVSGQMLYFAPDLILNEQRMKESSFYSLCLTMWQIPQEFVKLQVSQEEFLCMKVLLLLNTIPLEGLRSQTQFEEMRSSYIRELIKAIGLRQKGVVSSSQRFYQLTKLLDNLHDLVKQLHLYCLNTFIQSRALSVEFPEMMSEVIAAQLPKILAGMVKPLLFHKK

[6] = tested on: PC3 cells; assay: Viability assay, PC3; format: cell-based, human; settings: PC3, treated for 3 days
[7] = molecular target: T2, full-length human glucocorticoid receptor (GR) (Homo sapiens, UniProt P04150); assay: GR transcriptional activity, GRE reporter in LNCaP cells; settings: 10 µM, 10 nM dexamethasone, 48 hours
T2 sequence (P04150 1-777): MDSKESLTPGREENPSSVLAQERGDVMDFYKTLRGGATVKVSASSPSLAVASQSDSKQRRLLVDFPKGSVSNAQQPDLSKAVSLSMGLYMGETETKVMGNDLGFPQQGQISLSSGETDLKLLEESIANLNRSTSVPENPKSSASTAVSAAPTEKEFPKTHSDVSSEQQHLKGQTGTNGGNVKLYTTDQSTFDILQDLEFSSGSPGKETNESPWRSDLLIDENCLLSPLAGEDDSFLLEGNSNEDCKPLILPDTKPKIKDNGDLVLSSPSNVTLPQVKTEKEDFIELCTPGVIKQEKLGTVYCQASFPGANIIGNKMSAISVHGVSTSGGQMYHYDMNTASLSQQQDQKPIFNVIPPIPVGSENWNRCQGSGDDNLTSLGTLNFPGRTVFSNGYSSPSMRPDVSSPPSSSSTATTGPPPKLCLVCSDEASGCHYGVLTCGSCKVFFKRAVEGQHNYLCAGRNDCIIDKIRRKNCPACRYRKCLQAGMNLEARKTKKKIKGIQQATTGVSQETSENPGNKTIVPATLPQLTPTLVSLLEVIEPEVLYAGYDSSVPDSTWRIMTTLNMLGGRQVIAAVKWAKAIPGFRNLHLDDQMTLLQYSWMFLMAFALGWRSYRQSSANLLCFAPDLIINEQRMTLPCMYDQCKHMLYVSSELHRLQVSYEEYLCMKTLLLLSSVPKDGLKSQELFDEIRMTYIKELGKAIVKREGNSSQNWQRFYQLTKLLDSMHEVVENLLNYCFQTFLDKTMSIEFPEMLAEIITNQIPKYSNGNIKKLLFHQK

[8] = tested on: LNCaP cells; assay: Viability assay, LNCaP; format: cell-based, human; settings: treated for 4 days
[9] = tested on: PSA, FKBP5 and TMPRSS2 transcripts; assay: qRT-PCR of androgen-regulated genes in VCaP cells; format: cell-based; settings: 10 µM, 1 nM R1881, 16 hours
[10] = tested on: VCaP cells; assay: Viability assay, VCaP; format: cell-based; settings: VCaP (wild-type AR), treated for 5 days
[11] = tested on: seminal vesicles (androgen-dependent tissue); assay: In vivo effects on androgen-dependent tissue in intact male mice; parameters: species or system NOD-SCID mice; settings: mature male mice, 10 mg/kg oral gavage, 13 daily doses
[12] = molecular target: T3, recombinant human PR LBD (Homo sapiens, UniProt P06401); assay: In vitro ligand competitor assay; format: binding
T3 sequence (P06401 679-913 limits assumed): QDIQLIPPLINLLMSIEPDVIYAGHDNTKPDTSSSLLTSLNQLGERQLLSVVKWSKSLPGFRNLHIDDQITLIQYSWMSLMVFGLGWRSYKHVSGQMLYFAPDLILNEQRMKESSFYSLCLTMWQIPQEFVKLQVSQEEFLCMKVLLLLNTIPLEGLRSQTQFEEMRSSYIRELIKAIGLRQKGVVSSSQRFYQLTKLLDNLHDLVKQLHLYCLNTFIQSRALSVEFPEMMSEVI

Sequence of recombinant human full-length ERα (P03372 whole entry): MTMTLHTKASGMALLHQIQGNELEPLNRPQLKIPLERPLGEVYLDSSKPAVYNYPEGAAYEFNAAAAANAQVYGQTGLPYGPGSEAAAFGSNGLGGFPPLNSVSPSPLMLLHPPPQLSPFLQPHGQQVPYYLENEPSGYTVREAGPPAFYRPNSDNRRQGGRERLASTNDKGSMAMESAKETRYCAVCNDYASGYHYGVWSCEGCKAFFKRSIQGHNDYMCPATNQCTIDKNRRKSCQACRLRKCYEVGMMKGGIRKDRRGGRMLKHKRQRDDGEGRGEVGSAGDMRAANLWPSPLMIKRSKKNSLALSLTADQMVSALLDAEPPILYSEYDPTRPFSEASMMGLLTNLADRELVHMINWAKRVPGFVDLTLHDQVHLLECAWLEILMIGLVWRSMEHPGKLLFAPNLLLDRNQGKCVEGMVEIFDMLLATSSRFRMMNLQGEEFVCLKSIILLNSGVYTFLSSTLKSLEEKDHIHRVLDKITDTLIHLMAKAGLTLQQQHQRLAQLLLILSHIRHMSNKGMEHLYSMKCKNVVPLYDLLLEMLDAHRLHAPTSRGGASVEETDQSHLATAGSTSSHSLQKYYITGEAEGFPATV

SMILES	effect of androgen on proliferation [1]	competition with fluoromone for ERα [2]	effect of androgen on proliferation [3]	effect on cell growth/viability [4]	effect on PR transcriptional activity induced by Preg [5]	cytotoxicity (viability assay) [6]	effect on transcriptional activity of GR induced by dexamethasone [7]	cytotoxicity (viability assay) [8]	effect on androgen-induced levels of PSA transcript [9]	effect on androgen-induced levels of transcript for FKBP5 and TMPRSS2 [9]	cytotoxicity (viability assay) [10]	testes weight [11]	EC50 [12] [µM]
C[C@]1(O)CC[C@H]2[C@@H]3CCC4=CC(=O)CCC4=C3C=C[C@@]21C [R1881]	led to increased proliferation	none of the AR ligands (R1881, BIC and the diterpenoids) were efficient in competing	did not alter their proliferation	not altered	–	–	–	–	–	–	–	–	–
CC#C[C@]1(O)CC[C@H]2[C@@H]3CCC4=CC(=O)CCC4=C3[C@@H](c3ccc(N(C)C)cc3)C[C@@]21C [RU486]	–	–	–	–	inhibited	–	–	–	–	–	–	–	–
CC(O)(CS(=O)(=O)c1ccc(F)cc1)C(=O)Nc1ccc(C#N)c(C(F)(F)F)c1 (stereo not drawn) [BIC, bicalutamide]	–	–	–	not altered	inhibited	no indication of cytotoxicity	had no effect	no indication of cytotoxicity	neither BIC or any of the diterpenoids significantly reduced these levels	significantly blocked	no indication of cytotoxicity	no effect on the weight of testis	5.1
